Patent US12643880B2, “Heterobifunctional molecules as TEAD inhibitors” (Genentech, Inc., priority 2020, dated 2026)

How the values were obtained:
Format in all cases: binding
Settings in all cases: His-tagged TEAD protein, biotinylated lipid pocket probe
TEAD4 = TEAD4 (Homo sapiens, UniProt Q15561); assay: TEAD lipid pocket TR-FRET (Lipid HTRF) competition assay, TEAD4
Description: (§1) His-tagged TEAD proteins are pre-incubated with TEAD project compounds for 30 minutes at room temperature. Biotinylated lipid pocket probes are then added to the TEAD/Compound mixture and incubated for 60 minutes at room temperature. The lipid pocket probe competes with the test compound for the TEAD lipid pocket until equilibrium is reached. After 60 minutes, Europium labelled anti-His (Perkin Elmer #ADO 110) and XL665 labelled streptavidin (CIS Bio 610SAXAC) are added to the TEAD/test compound/lipid pocket mixture and incubated for 30 minutes. TR-FRET values are then measured using an EnVision multi-label plate reader (Perkin Elmer Cat #2104-1A.) If the lipid pocket probe binds to TEAD as expected, a TR-FRET signal results from the proximity of Tani-His Eu and XL665. If a TEAD lipid pocket binder such as binds and displaces the lipid pocket probe, the disruption of the TEAD:probe interaction results in a decrease in TR-FRET signal. The potency of compounds as TEAD lipid pocket binders is determined by IC50 value generated using a non-linear 4 parameter curve fit. This assay format enables more sensitive determinations of lipid pocket affinity than the aforementioned TEAD lipid pocket FP assay due to the decreased concentration of TEAD protein required for the TR-FRET assay format.

TEAD2 = TEAD2 (Homo sapiens, UniProt Q15562); assay: TEAD lipid pocket TR-FRET (Lipid HTRF) competition assay, TEAD2
Sequence of TEAD2 (Q15562 whole entry, species assumed): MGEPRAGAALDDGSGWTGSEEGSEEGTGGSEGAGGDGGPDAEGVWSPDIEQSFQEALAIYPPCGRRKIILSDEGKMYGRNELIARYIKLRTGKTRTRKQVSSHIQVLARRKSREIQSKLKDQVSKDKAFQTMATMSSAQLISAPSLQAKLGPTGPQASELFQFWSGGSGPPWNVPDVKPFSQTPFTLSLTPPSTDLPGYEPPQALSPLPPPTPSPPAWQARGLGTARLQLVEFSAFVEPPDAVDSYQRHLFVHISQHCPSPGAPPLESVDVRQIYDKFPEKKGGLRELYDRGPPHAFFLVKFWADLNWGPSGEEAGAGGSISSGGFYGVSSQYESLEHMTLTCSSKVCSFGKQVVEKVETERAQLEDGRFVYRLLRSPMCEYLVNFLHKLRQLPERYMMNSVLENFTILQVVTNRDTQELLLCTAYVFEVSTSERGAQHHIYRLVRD
Description: as §1

TEAD3 = TEAD3 (Homo sapiens, UniProt Q99594); assay: TEAD lipid pocket TR-FRET (Lipid HTRF) competition assay, TEAD3
Sequence of TEAD3 (Q99594 whole entry, species assumed): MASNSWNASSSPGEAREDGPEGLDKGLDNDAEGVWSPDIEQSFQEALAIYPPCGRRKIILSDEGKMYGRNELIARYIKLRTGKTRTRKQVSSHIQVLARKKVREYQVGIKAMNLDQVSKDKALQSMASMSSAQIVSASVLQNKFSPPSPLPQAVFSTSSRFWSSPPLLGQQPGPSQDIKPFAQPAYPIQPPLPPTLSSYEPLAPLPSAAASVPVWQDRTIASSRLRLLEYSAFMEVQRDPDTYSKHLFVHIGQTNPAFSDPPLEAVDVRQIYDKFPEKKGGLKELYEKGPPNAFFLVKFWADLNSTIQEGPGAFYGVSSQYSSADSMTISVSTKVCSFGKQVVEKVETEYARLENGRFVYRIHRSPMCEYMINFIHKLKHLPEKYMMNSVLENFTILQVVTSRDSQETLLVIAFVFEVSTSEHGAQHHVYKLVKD
Description: as §1

TEAD1 = TEAD1 (Homo sapiens, UniProt P28347); assay: TEAD lipid pocket TR-FRET (Lipid HTRF) competition assay, TEAD1
Sequence of TEAD1 (P28347 whole entry, species assumed): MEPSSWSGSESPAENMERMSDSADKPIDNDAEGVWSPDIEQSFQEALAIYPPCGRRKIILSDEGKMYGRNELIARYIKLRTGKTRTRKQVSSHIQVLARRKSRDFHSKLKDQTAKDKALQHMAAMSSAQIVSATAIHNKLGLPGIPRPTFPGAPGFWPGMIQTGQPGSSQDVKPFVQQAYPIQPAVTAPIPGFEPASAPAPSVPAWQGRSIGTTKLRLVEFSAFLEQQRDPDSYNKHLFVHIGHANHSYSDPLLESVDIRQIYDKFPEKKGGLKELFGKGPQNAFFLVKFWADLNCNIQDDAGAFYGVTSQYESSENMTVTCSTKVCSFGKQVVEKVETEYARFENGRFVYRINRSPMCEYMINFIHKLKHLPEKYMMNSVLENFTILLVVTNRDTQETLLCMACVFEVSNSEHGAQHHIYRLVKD
Description: as §1

Sequence of TEAD4 (Q15561 whole entry, species assumed): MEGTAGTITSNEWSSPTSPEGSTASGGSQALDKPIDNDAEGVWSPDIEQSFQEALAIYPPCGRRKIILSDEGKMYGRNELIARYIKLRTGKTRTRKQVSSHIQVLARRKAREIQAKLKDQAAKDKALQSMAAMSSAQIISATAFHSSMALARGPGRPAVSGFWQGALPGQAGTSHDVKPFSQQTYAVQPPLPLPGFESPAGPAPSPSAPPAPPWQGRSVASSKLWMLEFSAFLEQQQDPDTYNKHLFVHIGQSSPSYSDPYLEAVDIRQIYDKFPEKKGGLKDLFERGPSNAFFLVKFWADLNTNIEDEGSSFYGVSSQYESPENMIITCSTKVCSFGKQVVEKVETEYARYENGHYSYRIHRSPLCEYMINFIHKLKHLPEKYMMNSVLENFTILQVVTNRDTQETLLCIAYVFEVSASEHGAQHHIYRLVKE

COc1cnc(C(=O)NCc2cccc(CC(=O)N(C)CCCCCOc3ccc4c(c3)C(=O)N(C3CCC(=O)NC3=O)C4=O)c2)cc1/C=C/[C@H]1CC[C@H](C(F)(F)F)CC1 (stereo partly drawn) [Compound 10, N-(3-(2-((5-((2-(2,6-Dioxopiperidin-3-yl)-1,3-dioxoisoindolin-5-yl)oxy)pentyl)(methyl)amino)-2-oxoethyl)benzyl)-5-methoxy-4-((E)-2-(trans-4-(trifluoromethyl)cyclohexyl)vinyl)picolinamide]
IC50 (TEAD4): 0.47 µM | IC50 (TEAD2): 4.8 µM | IC50 (TEAD3): 50 µM | IC50 (TEAD1): 18.8 µM

COc1cnc(C(=O)NCc2cccc(CC(=O)N(C)CCCCOc3ccc4c(c3)C(=O)N(C3CCC(=O)NC3=O)C4=O)c2)cc1/C=C/[C@H]1CC[C@H](C(F)(F)F)CC1 (stereo partly drawn) [Compound 1, N-(3-(2-((4-((2-(2,6-dioxopiperidin-3-yl)-1,3-dioxoisoindolin-5-yl)oxy)butyl)(methyl)amino)-2-oxoethyl)benzyl)-5-methoxy-4-((E)-2-(trans-4-(trifluoromethyl)cyclohexyl)vinyl)picolinamide]
IC50 (TEAD4): 0.09 µM | IC50 (TEAD2): 0.23 µM | IC50 (TEAD3): 6 µM | IC50 (TEAD1): 0.65 µM

COc1cnc(C(=O)NCc2cccc(CC(=O)NCCOCCOCC(=O)N[C@H](C(=O)N3C[C@H](O)C[C@H]3C(=O)NCc3ccc(-c4scnc4C)cc3)C(C)(C)C)c2)cc1/C=C/[C@H]1CC[C@H](C(F)(F)F)CC1 [Compound 14, N-(3-((S)-13-((2S,4R)-4-Hydroxy-2-((4-(4-methylthiazol-5-yl)benzyl)carbamoyl)pyrrolidine-1-carbonyl)-14,14-dimethyl-2,11-dioxo-6,9-dioxa-3,12-diazapentadecyl)benzyl)-5-methoxy-4-((E)-2-(trans-4-(trifluoromethyl)cyclohexyl)vinyl)picolinamide]
IC50 (TEAD4): 0.17 µM | IC50 (TEAD2): 0.41 µM | IC50 (TEAD3): 3.83 µM | IC50 (TEAD1): 0.72 µM

COc1cnc(C(=O)NCc2cccc(CC(=O)N(C)CCOCCOCCOc3ccc4c(c3)C(=O)N(C3CCC(=O)NC3=O)C4=O)c2)cc1/C=C/[C@H]1CC[C@H](C(F)(F)F)CC1 (stereo partly drawn) [Compound 6, N-(3-(2-((2-(2-(2-((2-(2,6-Dioxopiperidin-3-yl)-1,3-dioxoisoindolin-5-yl)oxy)ethoxy)ethoxy)ethyl)(methyl)amino)-2-oxoethyl)benzyl)-5-methoxy-4-((E)-2-(trans-4-(trifluoromethyl)cyclohexyl)vinyl)picolinamide]
IC50 (TEAD4): 0.07 µM | IC50 (TEAD2): 0.18 µM | IC50 (TEAD3): 30 µM | IC50 (TEAD1): 1.15 µM

COc1cnc(C(=O)NCc2cccc(CC(=O)N(C)CCOCCOc3ccc4c(c3)C(=O)N(C3CCC(=O)NC3=O)C4=O)c2)cc1/C=C/[C@H]1CC[C@H](C(F)(F)F)CC1 (stereo partly drawn) [Compound 5, N-(3-(2-((2-(2-((2-(2,6-Dioxopiperidin-3-yl)-1,3-dioxoisoindolin-5-yl)oxy)ethoxy)ethyl)(methyl)amino)-2-oxoethyl)benzyl)-5-methoxy-4-((E)-2-(trans-4-(trifluoromethyl)cyclohexyl)vinyl)picolinamide]
IC50 (TEAD4): 0.11 µM | IC50 (TEAD2): 0.18 µM | IC50 (TEAD3): 4 µM | IC50 (TEAD1): 0.51 µM

COc1cnc(C(=O)NCc2cccc(CC(=O)N(C)CCCCCCCOc3ccc4c(c3)C(=O)N(C3CCC(=O)NC3=O)C4=O)c2)cc1/C=C/[C@H]1CC[C@H](C(F)(F)F)CC1 (stereo partly drawn) [Compound 9, N-(3-(2-((7-((2-(2,6-Dioxopiperidin-3-yl)-1,3-dioxoisoindolin-5-yl)oxy)heptyl)(methyl)amino)-2-oxoethyl)benzyl)-5-methoxy-4-((E)-2-(trans-4-(trifluoromethyl)cyclohexyl)vinyl)picolinamide]
IC50 (TEAD4): 0.32 µM | IC50 (TEAD2): 0.65 µM | IC50 (TEAD3): 5.37 µM | IC50 (TEAD1): 1.3 µM

CN[C@@H](C)C(=O)N[C@H](C(=O)N1CCC[C@H]1C(=O)Nc1sc(NC(=O)COCCOCCOCCOCCOCCN(C)C(=O)Cc2cccc(CNC(=O)c3cc(/C=C/[C@H]4CC[C@H](C(F)(F)F)CC4)c(OC)cn3)c2)nc1-c1ccccc1)C1CCCCC1 [Compound 19, N-(3-(20-((5-((S)-1-((S)-2-Cyclohexyl-2-((S)-2-(methylamino)propanamido)acetyl)pyrrolidine-2-carboxamido)-4-phenylthiazol-2-yl)amino)-3-methyl-2,20-dioxo-6,9,12,15,18-pentaoxa-3-azaicosyl)benzyl)-5-methoxy-4-((E)-2-(trans-4-(trifluoromethyl)cyclohexyl)vinyl)picolinamide]
IC50 (TEAD4): 0.14 µM | IC50 (TEAD2): 0.36 µM | IC50 (TEAD3): 4.1 µM | IC50 (TEAD1): 0.54 µM

COc1cnc(C(=O)NCc2cccc(CC(=O)NCCCCCCC(=O)N[C@H](C(=O)N3C[C@H](O)C[C@H]3C(=O)NCc3ccc(-c4scnc4C)cc3)C(C)(C)C)c2)cc1/C=C/[C@H]1CC[C@H](C(F)(F)F)CC1 [Compound 12, N-(3-(2-((7-(((S)-1-((2S,4R)-4-Hydroxy-2-((4-(4-methylthiazol-5-yl)benzyl)carbamoyl)pyrrolidin-1-yl)-3,3-dimethyl-1-oxobutan-2-yl)amino)-7-oxoheptyl)amino)-2-oxoethyl)benzyl)-5-methoxy-4-((E)-2-(trans-4-(trifluoromethyl)cyclohexyl)vinyl)picolinamide]
IC50 (TEAD4): 0.28 µM | IC50 (TEAD2): 0.69 µM | IC50 (TEAD3): 5.9 µM | IC50 (TEAD1): 1.32 µM
